Entries after “also recorded” stand apart in the source; their conditions may differ.
Key:
HLY1 = test: Cell viability assay (Cell Titer Glo, 72 hours); format: cell-based; settings: Homo sapiens, HLY1, DLBCL ABC subtype, single agent
Experimental: (§1) In addition, the study further explored the mechanism of action of the combination of acalabrutinib and capivasertib using western blot analysis.
(§2) Cell viability was measured using Cell Titer Glo reagent and readouts were taken using a Tecan plate reader with a 100 ms integration time. Data analysis was carried out using GeneData software version 15. A growth inhibition value less than 1 μM (GI50<1 μM) indicates sensitivity.

Karpas-422 = test: Cell viability assay (Cell Titer Glo, 72 hours); format: cell-based; settings: Homo sapiens, Karpas-422, DLBCL GCB subtype, single agent
Experimental: as §1, §2

OCI-LY10 = test: Cell viability assay (Cell Titer Glo, 72 hours); format: cell-based; settings: Homo sapiens, OCI-LY10, DLBCL ABC subtype, single agent
Experimental: as §1, §2

OCI-LY19 = test: Cell viability assay (Cell Titer Glo, 72 hours); format: cell-based; settings: Homo sapiens, OCI-LY19, DLBCL GCB subtype, single agent
Experimental: as §1, §2

OCI-LY3 = test: Cell viability assay (Cell Titer Glo, 72 hours); format: cell-based; settings: Homo sapiens, OCI-LY3, DLBCL ABC subtype, single agent
Experimental: as §1, §2

SuDHL4 = test: Cell viability assay (Cell Titer Glo, 72 hours); format: cell-based; settings: Homo sapiens, SU-DHL-4, SuDHL4, DLBCL GCB subtype, single agent
Experimental: as §1, §2

SuDHL6 = test: Cell viability assay (Cell Titer Glo, 72 hours); format: cell-based; settings: Homo sapiens, SU-DHL-6, SuDHL6, DLBCL GCB subtype, single agent
Experimental: as §1, §2

TMD8 = test: Cell viability assay (Cell Titer Glo, 72 hours); format: cell-based; settings: Homo sapiens, TMD8, DLBCL ABC subtype, single agent
Experimental: as §1, §2

U2932 = test: Cell viability assay (Cell Titer Glo, 72 hours); format: cell-based; settings: Homo sapiens, U2932, DLBCL ABC subtype, single agent
Experimental: as §1, §2

WILL1 = test: Cell viability assay (Cell Titer Glo, 72 hours); format: cell-based; settings: WILL-1, WILL1, DLBCL Int subtype, single agent
Experimental: as §1, §2

WSU-DLCL2 = test: Cell viability assay (Cell Titer Glo, 72 hours); format: cell-based; settings: Homo sapiens, WSUDLCL2, WSU-DLCL2, DLBCL GCB subtype, single agent
Experimental: as §1, §2

OCI-LY10 cells = test: Western blot analysis of phospho-proteins; format: cell-based, human; settings: 2 or 24 hours; for phosphorylation of AKTS473: 100 nM acalabrutinib or both
Excerpt: (§3) Cells were then lysed in SDS lysis buffer, centrifuged and protein concentrations estimated. Samples were loaded onto Bis-Tris Novex gels, transferred onto nitrocellulose membranes and probed for phospho-proteins of interest.

TMD8 cells = test: Western blot analysis of phospho-proteins; format: cell-based, human; settings: 2 or 24 hours; for phosphorylation of AKTS473: 100 nM acalabrutinib or both
Excerpt: as §3

[1] = system: TMD8 human ABC DLBCL xenograft; test: In vivo efficacy in subcutaneous TMD8 human ABC-DLBCL xenograft model; parameters: species or system mouse; settings: SCID mice, oral BID, acalabrutinib 20 mg/kg; for TGI (tumor growth inhibition): capivasertib 130 mg/kg 4 days on/3 days off, after 24 days of treatment; for MAX AVG BODY WEIGHT LOSS: capivasertib 130 mg/kg, 24-day study
Experimental: (§4) TMD8 human ABC-DLBCL tumor cells (5×10^6/mouse) were implanted subcutaneously in female CB.17 SCID mice. […] Tumor length and width was measured by caliper and tumor volume was calculated using the formula (length×width^2)*π/6.

[2] = system: OCI-Ly10 human ABC DLBCL xenograft; test: In vivo efficacy in subcutaneous OCI-Ly10 human ABC-DLBCL xenograft model; parameters: species or system mouse; settings: SCID mice, oral BID, acalabrutinib 20 mg/kg; for TGI (tumor growth inhibition): capivasertib 130 mg/kg 4 days on/3 days off, after 25 days of treatment; for MAX AVG BODY WEIGHT LOSS: capivasertib 130 mg/kg, 25-day study
Experimental: OCI-ly10 human ABC-DLBCL tumor cells (5×10^6/mouse) were implanted subcutaneously in female CB.17 SCID mice. […] Tumor length and width was measured by caliper and tumor volume was calculated using the formula (length×width^2)*π/6.

[3] = Plasma pharmacokinetics in the TMD8 xenograft efficacy study; format: in vivo, mouse; settings: TMD8 xenograft mice; oral; day 20; 1, 2, 4 and 8-hour time points
Experimental: as §4

Structure (SMILES)	GI50 (HLY1) [µM]	GI50 (Karpas-422) [µM]	GI50 (OCI-LY10) [µM]	GI50 (OCI-LY19) [µM]	GI50 (OCI-LY3) [µM]	GI50 (SuDHL4) [µM]	GI50 (SuDHL6) [µM]	GI50 (TMD8) [µM]	GI50 (U2932) [µM]	GI50 (WILL1) [µM]	GI50 (WSU-DLCL2) [µM]	phosphorylation of AKTS473 (OCI-LY10 cells; 1 μM capivasertib)	phosphorylation of AKTS473 (TMD8 cells; 1 μM capivasertib)	TGI (tumor growth inhibition) [1] [%]	MAX AVG BODY WEIGHT LOSS [1] [%]	TGI (tumor growth inhibition) [2] [%]	MAX AVG BODY WEIGHT LOSS [2] [%]	also measured
CC#CC(=O)N1CCC[C@H]1c1nc(-c2ccc(C(=O)Nc3ccccn3)cc2)c2c(N)nccn12 [acalabrutinib, 4-{8-amino-3-[(2S)-1-(but-2-ynoyl)pyrrolidin-2-yl]imidazo[1,5-a]pyrazin-1-yl}-N-(pyridin-2-yl)benzamide]	> 3	> 3	0.022	> 3	> 3	> 3	> 3	0.025	> 3	> 3	> 3	decreased	decreased	81	5	74	2	phosphorylation of BTK (OCI-LY10 cells; 100 nM acalabrutinib): decrease; phosphorylation of BTK (TMD8 cells; 100 nM acalabrutinib): decrease; TGI (tumor growth inhibition) ([1]; listed as Acalabrutinib): 81%; TGI (tumor growth inhibition) ([2]; listed as Acalabrutinib): 74%; steady-state drug exposure levels (unbound plasma concentrations), single agent versus combination [3]: similar; also recorded: comparable
NC1(C(=O)N[C@@H](CCO)c2ccc(Cl)cc2)CCN(c2ncnc3[nH]ccc23)CC1 [capivasertib, (S)-4-amino-N-(1-(4-chlorophenyl)-3-hydroxypropyl)-1-(7H-pyrrolo[2,3-d]pyrimidin-4-yl)piperidine-4-carboxamide]	> 3	0.2	> 3	> 3	> 3	0.71	0.36	> 3	> 3	> 3	0.06	increased	increased	0	2	0	3	phosphorylation of the downstream substrates PRAS40, GSK3β, FOXO and S6 (OCI-LY10 cells; 1 μM capivasertib): decreased; phosphorylation of the downstream substrates PRAS40, GSK3β, FOXO and S6 (TMD8 cells; 1 μM capivasertib): decreased; TGI (tumor growth inhibition) ([1]; listed as Capivasertib): 0%; TGI (tumor growth inhibition) ([2]; listed as Capivasertib): 0%
